# Measurements reported in patent US20260183276A1, “miRNA DYSREGULATION CORRECTION AS A STRATEGY TO TREAT HUNTINGTON'S DISEASE” (The Chinese University of Hong Kong, priority 2022, published 2026).
# Key:
# [1] = system: TAK1-MKK4-JNK pro-apoptotic signaling in EGFP-Htt1-550CAG89-expressing cells; test: Western blotting of TAK1-MKK4-JNK caspase cascade, EGFP-Htt1-550CAG89-expressing SK-N-MC cells; assay type: cell-based
# Procedure: (§1) SK-N-MC cells (ATCC) were cultured in DMEM (GE Healthcare BioSciences) supplemented with 10% fetal bovine serum and 1% penicillin-streptomycin. Cells were maintained in a 37° C. humidified cell culture incubator supplemented with 5% CO2. Plasmid DNA and siRNA/synthetic miRNA transfection was performed using Lipofectamine 2000 (Thermo Fisher Scientific) and Lipofectamine RNAiMAX (Thermo Fisher Scientific), respectively.
# Proteins were extracted from SK-N-MC cells or mouse primary cortical neurons using SDS sample buffer. For protein extraction from mice, half of the brain was homogenized in protein lysis buffer (50 mM Tris-HCl, pH 7.6, 150 mM NaCl, 10% NP40, 5% sodium deoxycholate). All protein samples were boiled at 99° C. for 10 minutes, prior to Western blotting. Primary antibodies used were anti-PAPD5 (PA5-46747, 1:1,000) from Invitrogen; anti-p-TAK1 (4536, 1:1,000), anti-t-TAK1 (4505, 1:2,000), anti-p-MKK4 (9156, 1:1,000), anti-t-MKK4 (9152, 1:2,000), anti-p-MKK7 (4171, 1:1,000), anti-t-MKK7 (4172, 1:2,000), anti-p-JNK (9251, 1:2,000), anti-t-JNK (9252, 1:2,000), anti-TAB1 (3226, 1:2,000), anti-TAB2 (3745, 1:2,000), anti-cleaved caspase 3 (9664, 1:500) and anti-myc (2276, 1:2,000) from Cell Signaling Technology; antipolyQ (P1874, 1:1,000) and anti-HA (H3663, 1:2,000) from Sigma-Aldrich; anti-YY1 (ab109237, 1:2000) and anti-β-tubulin (ab6046, 1:2,000) from Abcam, and anti-GFP (JL-8, 1:4,000) from Clontech. Secondary antibodies used were goat anti-rabbit (11035-045, 1:5,000) and goat anti-mouse (115-035-062, 1:5,000) from Jackson ImmunoResearch.
# [2] = system: telomerase RNA component (TERC); conditions: cited from earlier work
# PAPD5 = PAPD5 (Homo sapiens, UniProt Q8NDF8); conditions: cited from earlier work
# [3] = system: EGFPCAG78-expressing SK-N-MC cells; test: LDH cell death assay, EGFPCAG78-expressing SK-N-MC cells; assay type: cell-based
# Procedure: as §1
# (§2) The LDH assay on SK-N-MC cells were performed according to manufacturer's instructions (CytoTox 96 Non-Radioactive Cytotoxicity Assay Kit, Promega).
# [4] = system: EGFP-Htt1-550CAG89-expressing SK-N-MC cells; test: LDH cell death assay, EGFP-Htt1-550CAG89-expressing SK-N-MC cells; assay type: cell-based
# Procedure: as §1, §2
# A-beta peptide toxicity = test: A-beta1-42 peptide transgenic Drosophila model of Alzheimer's Disease; assay type: in vivo; conditions: A-beta1-42 transgenic Drosophila
# [5] = system: HttQ93-induced retinal neurodegeneration; test: Pseudopupil assay, HttQ93 Drosophila model of Huntington's Disease; assay type: in vivo; conditions: 10 uM BCH001, gmr-GAL4 driver
# Procedure: Fly lines gmr-Gal4 (Ellis et al., 1993), UAS-DsRedCAG0/100 (Li et al., 2008), UAS-Htt exon1Q93 (Steffan et al., 2001), UAS-flMJDQ27/84 (Warrick et al., 2005), UASCTG60/480 (Garcia-Lopez et al., 2008) and UAS-EGFP-CGG90 (Jin et al., 2003) were described previously. The UAS-PAPD5 dsRNA line (GD19799, GD41096, and GD45261) was obtained from Vienna Drosophila RNAi Center. All flies were maintained in cornmeal culture medium and genetic crosses were set up in a 21.5° C. incubator (LMS, Sevenoaks, Kent, UK).
# 12 days-post-eclosion (dpe) adult flies were used for the pseudopupil assay as described previously (Wong et al., 2008). Each fly eye was examined using an Olympus CX31 stereomicroscope. The images of ommatidia were captured using a SPOT Insight CCD camera (Diagnostic instruments Inc., Sterling Heights, MI, USA), and all images were processed using the SPOT Advanced software (Version 5.2; Diagnostic instruments Inc., Sterling Heights, MI, USA) and Photoshop 2020 (Adobe Systems). Two hundred ommatidia collected from 20 individual fly eyes were examined for each condition and used for statistical analysis. The average number of rhabdomeres per ommatidia was presented as the indication of ommatidial integrity.
# Sequence of PAPD5 (Q8NDF8 whole entry): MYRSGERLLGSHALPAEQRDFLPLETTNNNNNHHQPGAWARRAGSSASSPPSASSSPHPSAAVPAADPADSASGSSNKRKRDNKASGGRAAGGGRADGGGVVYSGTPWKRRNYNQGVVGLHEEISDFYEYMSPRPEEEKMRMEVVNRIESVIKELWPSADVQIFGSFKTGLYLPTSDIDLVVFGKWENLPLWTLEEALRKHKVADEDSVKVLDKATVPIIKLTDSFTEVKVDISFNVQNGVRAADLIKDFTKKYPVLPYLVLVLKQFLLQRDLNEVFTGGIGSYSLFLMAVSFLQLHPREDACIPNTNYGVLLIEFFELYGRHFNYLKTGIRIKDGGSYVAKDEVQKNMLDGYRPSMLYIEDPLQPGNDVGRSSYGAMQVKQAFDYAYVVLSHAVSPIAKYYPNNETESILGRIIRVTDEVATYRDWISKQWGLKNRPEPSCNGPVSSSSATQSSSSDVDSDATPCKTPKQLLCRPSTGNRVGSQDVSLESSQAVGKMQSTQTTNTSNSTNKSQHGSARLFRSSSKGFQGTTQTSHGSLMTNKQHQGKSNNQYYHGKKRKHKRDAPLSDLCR
smiles,measurement,setting,value
CCOC(=O)c1cnc2ccc(OC(F)(F)F)cc2c1Nc1ccccc1C(=O)O [BCH001],caspase 3 cleavage,[1],suppressed
same,"phosphorylation levels of TAK1, MKK4 and JNK",[1],reduced
same,3' adenylation of telomerase RNA component (TERC),[2],reduced
same,PAPD5 enzyme activity,PAPD5,specifically target
same,mutant CAG RNA (EGFPCAG78)-induced cell death,[3],completely suppressed
same,IC50,"[3]; Homo sapiens, FIG. 11, read-out: IC50 of suppression of EGFPCAG78-induced cell death",14.7 nM
same,EGFP-Htt1-550CAG89-induced cell death,[4],rescued
same,A-beta peptide toxicity (retinal degeneration),A-beta peptide toxicity,capable of suppressing
same,HttQ93-induced retinal neurodegeneration (rhabdomere numbers),[5],marked suppression
